From PubChem BioAssay AID1648 (Sanford-Burnham Center for Chemical Genomics, 2009)
Activity calls are given as the source filed them. How the calls were made is not given here.

What follows are molecules tested against Serine/threonine-protein kinase mTOR (Homo sapiens) (UniProt P42345) (assay: mTOR FRB domain ligand binding – biophysical, NMR (AID 1648)). Details: NMR binding to FRB domain, chemical shift.
Sequence of Serine/threonine-protein kinase mTOR (Homo sapiens) (P42345 2015-2114): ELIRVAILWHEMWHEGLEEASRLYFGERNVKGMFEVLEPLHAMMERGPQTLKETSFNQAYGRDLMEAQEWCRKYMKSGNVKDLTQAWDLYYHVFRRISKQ

SMILES	Kd
CC(C)CCCC(C)C1CCC2C3=CC[C@H]4C[C@@H](O)CC[C@]4(C)C3CC[C@@]21C (some centres not stated)	> 4 mM (inactive)
CNc1ccccc1C(=O)O	> 4 mM (inactive)
Cc1cccc(CSc2nncc(=O)[nH]2)c1	> 4 mM (inactive)
COc1ccc(-c2oc3ccccc3c(=O)c2O)cc1OC	> 4 mM (inactive)
COc1ccc2c(c1)OC1(O)COc3cc(OC)c(OC)cc3C1=C2 (configuration not stated)	> 4 mM (inactive)
Cc1ccccc1NC(=O)N1CCOCC1	> 4 mM (inactive)
CC(=O)Nc1ccc(S(N)(=O)=O)cc1	> 4 mM (inactive)
Cc1cc(C)cc(OC(=O)N2CCOCC2)c1	> 4 mM (inactive)
COC(=O)c1ccc(N2CCOCC2)nc1	> 4 mM (inactive)
NC1=C([N+](=O)[O-])C(=O)c2ccccc21	> 4 mM (inactive)
C=C1C([C@]2(C)C(CC(=O)OC)[C@@](C)(COC(C)=O)OC(=O)C[C@@H]2OC(C)=O)[C@@H](OC=O)[C@H](OC(=O)C(OC(C)=O)C(C)CC)[C@@]2(C)[C@H](c3ccoc3)CC(=O)C12O (some centres not stated)	> 4 mM (inactive)
COc1cc(S(=O)(=O)Nc2cccnc2)ccc1F	> 4 mM (inactive)
Cc1csc(NC(=O)c2ccoc2C)n1	> 4 mM (inactive)
CN(C)S(=O)(=O)c1cccc(N)c1	> 4 mM (inactive)
Nc1ccc(S(=O)(=O)N2CCOCC2)cc1	> 4 mM (inactive)
Nc1cccc(C(=O)c2ccccc2)c1	> 4 mM (inactive)
NCCCCN=C(N)N	> 4 mM (inactive)
Nc1ccc2[nH]ccc2c1	> 4 mM (inactive)
CCOC(=O)c1ccc(F)c(F)c1	> 4 mM (inactive)
COc1ccc2c(c1OC)C(=O)OC2[C@H]1c2c(cc3c(c2OC)OCO3)CCN1C (some centres not stated)	> 4 mM (inactive)
Cc1cc(C(=O)N2CCCCCC2)cs1	> 4 mM (inactive)
Cc1cc(NC(=O)CSc2nncn2C)no1	> 4 mM (inactive)
COc1cc2c(cc1-c1cc3cc4ccoc4cc3oc1=O)OCO2	> 4 mM (inactive)
COc1ccc(-c2cc(=O)c3c(O)cc(O[C@H]4O[C@H](CO[C@@H]5O[C@@H](C)[C@H](O)[C@@H](O)[C@H]5O)[C@@H](O)[C@H](O)[C@H]4O)cc3o2)cc1	> 4 mM (inactive)

SMILES	Kd
O=c1[nH]c(N2CCOCC2)nc2ccccc12	> 4 mM (inactive)
Cc1ccc(N2C(=O)C3C4C=CC(O4)C3C2=O)cc1 (configuration not stated)	> 4 mM (inactive)
CC(C)C(C)/C=C/C(C)[C@H]1CCC2C3=CCC4CC(=O)CC[C@]4(C)C3CC[C@@]21C (some centres not stated)	> 4 mM (inactive)
Nc1nc(SCc2ccc3c(c2)OCO3)n[nH]1	> 4 mM (inactive)
OCc1ccc2c(c1)CCO2	> 4 mM (inactive)
Cc1nc2c(=O)[nH]c3ccccc3c2o1	> 4 mM (inactive)
NC(=O)C1CCN(C(=O)c2ccco2)CC1	> 4 mM (inactive)
CCc1cc2c(SCC(=O)O)ncnc2s1	> 4 mM (inactive)
CCOc1cc(C)c(Cl)cc1S(=O)(=O)N(C)C	> 4 mM (inactive)
COc1ccc(-c2ccc(SCC(N)=O)nn2)cc1	> 4 mM (inactive)
CSc1n[nH]c(NCc2ccccc2)n1	> 4 mM (inactive)
O=C1CSC(=Nc2ccc(F)cc2)N1	> 4 mM (inactive)
Cn1c(NCc2ccccc2O)nc2ccccc21	> 4 mM (inactive)
Cc1noc(C)c1C(=O)Nc1ccccn1	> 4 mM (inactive)
O=C(Nc1ccc2c(c1)OCCO2)c1ccncc1	> 4 mM (inactive)
O=C(Nc1nncs1)c1c(F)c(F)c(F)c(F)c1F	> 4 mM (inactive)
C[C@@H](N)[C@@H](O)c1ccccc1	> 4 mM (inactive)
Oc1ccc(/C=C/c2cc(O)cc(O)c2)cc1	> 4 mM (inactive)
COc1ccc(NC(=O)C(N)=O)cc1Cl	> 4 mM (inactive)
COC(=O)CSc1nc(N)cc(=O)[nH]1	> 4 mM (inactive)
CC(=O)NC(NC(C)=O)c1ccccc1	> 4 mM (inactive)
COc1cc2c(cc1OC)C(C)NCC2 (configuration not stated)	> 4 mM (inactive)
Cn1ccnc1SCc1cc(=O)[nH]c2ccccc12	> 4 mM (inactive)
Cc1cccnc1NC1=NCC(C)S1 (configuration not stated)	> 4 mM (inactive)

SMILES	Kd
Cc1ccc(C(=O)CS(C)(=O)=O)cc1	> 4 mM (inactive)
Cc1cccc(-n2c(N)cc(=O)[nH]c2=S)c1	> 4 mM (inactive)
COc1cccc(/C=C2/SC(N)=NC2=O)c1	> 4 mM (inactive)
NC(=O)c1c(Cl)nsc1-c1ccccc1Cl	> 4 mM (inactive)
Cn1cnnc1SCC(=O)Nc1ccccc1	> 4 mM (inactive)
Cc1nc(-c2ccccc2)ncc1C(=O)O	> 4 mM (inactive)
CCC(C)C(NC)C(=O)O (configuration not stated)	> 4 mM (inactive)
Oc1ccc(C(=S)N2CCCCC2)cc1Cl	> 4 mM (inactive)
Nc1ccccc1-c1nc2ccccc2[nH]1	> 4 mM (inactive)
CN(C)CCNC(CC(=O)Nc1ccccc1)C(=O)O (configuration not stated)	> 4 mM (inactive)
Cc1nc2nc(Cc3ccccc3)[nH]n2c(=O)c1Cl	> 4 mM (inactive)
COCC(=O)NC1CC(C)(C)NC(C)(C)C1	> 4 mM (inactive)
CN(C)Cc1c(N)cccc1O	> 4 mM (inactive)
CCn1cnc(C(=O)NC)c1C(=O)NC	> 4 mM (inactive)
Nc1ncnc(NCCO)c1[N+](=O)[O-]	> 4 mM (inactive)
Cc1ncoc1C(=O)Nc1ncc([N+](=O)[O-])s1	> 4 mM (inactive)
CC(=O)O[C@@H]1CC2C(C)(CC[C@H](O)C2(C)C)C2CC[C@]3(C)C(=CC(=O)O[C@H]3c3ccoc3)C21C (some centres not stated)	> 4 mM (inactive)
O=C(Nc1ccon1)c1cccc(C(F)(F)F)c1	> 4 mM (inactive)
Cc1c(C(=O)N2CCOCC2)oc2c1C(=O)CC(C)(C)C2	> 4 mM (inactive)
Cc1noc(C)c1C(=O)Nc1ccc2c(c1)CCC2	> 4 mM (inactive)
Nc1ccc(F)cc1F	> 4 mM (inactive)
Cn1ncc(SCc2ccco2)c(Cl)c1=O	> 4 mM (inactive)
O=c1c(O)c(-c2ccc(O)cc2O)oc2cc(O)cc(O)c12	> 4 mM (inactive)
Fc1cccc(Cl)c1CN1CCCNCC1	> 4 mM (inactive)

SMILES	Kd
CN(C)C(=O)CSc1nc(N)cc(=O)[nH]1	> 4 mM (inactive)
O=C1Nc2ccccc2C12OCCO2	> 4 mM (inactive)
Cc1ccc2nc(SCCC#N)nc(C)c2c1	> 4 mM (inactive)
OCCCc1nc2ccccc2[nH]1	> 4 mM (inactive)
NCc1ccc(-n2cccc2)cc1	> 4 mM (inactive)
CSc1ccc(S(=O)(=O)N2CCCC2)cc1	> 4 mM (inactive)
CNC(=O)N1CCN(C(=O)NC)CC1	> 4 mM (inactive)
CC1(C)N=C2C(=N)C=CC=C2N1O	> 4 mM (inactive)
c1ccc2[nH]c(SCc3cscn3)nc2c1	> 4 mM (inactive)
CS(=O)(=O)N1CCN(C(=O)c2ccccc2)CC1	> 4 mM (inactive)
Cc1nnc(SCc2ccccc2)[nH]c1=O	> 4 mM (inactive)
Cc1ccc(CO)o1	> 4 mM (inactive)
O=C(NCC1CCCCC1)c1ccco1	> 4 mM (inactive)
CC(=O)n1nc(-c2cccnc2)nc1N	> 4 mM (inactive)
NC(CC(=O)O)C(=O)Nc1ccc(Cl)cc1 (configuration not stated)	> 4 mM (inactive)
CCOC(=O)c1cnc2cc(C)nn2c1C	> 4 mM (inactive)
O=C(Nc1cccc(C(F)(F)F)c1)c1cccnc1	> 4 mM (inactive)
Oc1ccccc1-c1nnco1	> 4 mM (inactive)
CCn1cnc2scc(-c3ccccc3)c2c1=O	> 4 mM (inactive)
Cn1ncc(C(=O)O)c1-c1ccccc1	> 4 mM (inactive)
CCP(=O)(CC)c1cccc(C)c1	> 4 mM (inactive)
O=C(Nc1cnccn1)c1cccc(C(F)(F)F)c1	> 4 mM (inactive)
C/C=C/c1ccc2c(c1)OCO2	> 4 mM (inactive)
CC(C)[C@@H]1CC[C@@H](C)C[C@H]1OC(=O)c1ccccc1	> 4 mM (inactive)

SMILES	Kd
Cc1cc(NC(=O)Cc2c(F)cccc2Cl)no1	> 4 mM (inactive)
O=c1cc(-c2ccc(O)cc2)[nH]c(=S)[nH]1	> 4 mM (inactive)
O=C(Nc1ccccc1C(F)(F)F)c1cnccn1	> 4 mM (inactive)
O=C(OC[C@H]1O[C@H](OC(=O)c2cc(O)c(O)c(OC(=O)c3cc(O)c(O)c(O)c3)c2)[C@H](OC(=O)c2cc(O)c(O)c(OC(=O)c3cc(O)c(O)c(O)c3)c2)[C@@H](OC(=O)c2cc(O)c(O)c(OC(=O)c3cc(O)c(O)c(O)c3)c2)[C@@H]1OC(=O)c1cc(O)c(O)c(OC(=O)c2cc(O)c(O)c(O)c2)c1)c1cc(O)c(O)c(OC(=O)c2cc(O)c(O)c(O)c2)c1	> 4 mM (inactive)
CCOc1ccc(C)cc1S(=O)(=O)n1ccnc1	> 4 mM (inactive)
COC1=CC(=O)C[C@@H](C)[C@]12Oc1c(Cl)c(OC)cc(OC)c1C2=O	> 4 mM (inactive)
CC(C)n1c(-c2ccncc2)n[nH]c1=S	> 4 mM (inactive)
CN1C(=O)Cc2cc(S(N)(=O)=O)ccc21	> 4 mM (inactive)
CCc1ccc2oc(-c3cc(N)cc(C)c3O)nc2c1	> 4 mM (inactive)
NC(=O)Cc1nc2ccccc2[nH]1	> 4 mM (inactive)
NC(=O)Nc1cccc(C(F)(F)F)c1	> 4 mM (inactive)
Cc1nc(-c2ccc(C(=O)N3CCOCC3)cc2)cs1	> 4 mM (inactive)
Cc1nn(C)c(N2CCOCC2)c1N	> 4 mM (inactive)
Cc1cc(C(=O)Nc2nnc(C(F)(F)F)s2)no1	> 4 mM (inactive)
Cn1c(SCCC(=O)O)nnc1-c1cccnc1	> 4 mM (inactive)
COC(=O)[C@]1(C)CC[C@]2(C)CC[C@]3(C)C4=CC=C5C(=CC(=O)C(O)=C5C)[C@]4(C)CC[C@@]3(C)[C@@H]2C1	> 4 mM (inactive)
Cc1nn2c(=O)/c(=C/c3cccc(F)c3)sc2nc1=O	> 4 mM (inactive)
Cn1[nH]c(C(F)(F)F)cc1=O	> 4 mM (inactive)
O=C(Nc1ccc(N2CCOCC2)cc1)c1cnsn1	> 4 mM (inactive)
NC(=O)CNC(=O)c1ccc2ccccc2n1	> 4 mM (inactive)
CC(CCC(=O)O)[C@H]1CCC2C3CC[C@@H]4C[C@H](O)CC[C@]4(C)C3C[C@H](O)[C@@]21C (some centres not stated)	> 4 mM (inactive)
